What was measured:
BRAF V600E = target: T1, BRAF V600E (Homo sapiens, UniProt P15056, V600E); experiment: BRAF V600E biochemical kinase activity assay (AlphaScreen, biotin-MEK1 substrate); details: BRAF V600E biochemical inhibitory activity
T1 construct: purchased Upstate Biotechnology

B9 (HRAS Q61L) cell line = experiment: B9 P-ERK cell activation assay (AlphaScreen); format: cell-based, mouse; details: Mus musculus; P-ERK cell activation, B9; numeric bounds; read-out: Cell activity (EC50 μM) B9_pERK
How it was run: (§1)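 Phospho-ERK1/2 (Thr202/Tyr204) in lysates quantified via AlphaScreen bead proximity, after one-hour, 37° C. exposure of cells to eight compound concentrations. Lines: IPC-298 human melanoma with activated NRAS; B9 mouse squamous carcinoma with activated HRAS.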

[1] = test system: IPC-298 (NRAS Q61L) cell line; experiment: IPC-298 P-ERK cell activation assay (AlphaScreen); format: cell-based, human; details: Homo sapiens; P-ERK cell activation, IPC-298; numeric bounds; read-out: Cell activity (EC50 μM) IPC-298_P-ERK
How it was run: as §1

[2] = test system: A375 (BRAF V600E) cell line; experiment: A375 P-ERK inhibition assay (AlphaScreen); format: cell-based, human; details: Homo sapiens, A-375; A375_P-ERK
How it was run: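 Phospho-ERK1/2 (Thr202/Tyr204) detected in lysates by AlphaScreen proximity signal, pairing a total-ERK antibody with a phospho-specific antibody. Before lysis, A375 cells received compound as an 8-point titration for one hour at 37° C.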

T1 sequence (P15056 whole entry V600E): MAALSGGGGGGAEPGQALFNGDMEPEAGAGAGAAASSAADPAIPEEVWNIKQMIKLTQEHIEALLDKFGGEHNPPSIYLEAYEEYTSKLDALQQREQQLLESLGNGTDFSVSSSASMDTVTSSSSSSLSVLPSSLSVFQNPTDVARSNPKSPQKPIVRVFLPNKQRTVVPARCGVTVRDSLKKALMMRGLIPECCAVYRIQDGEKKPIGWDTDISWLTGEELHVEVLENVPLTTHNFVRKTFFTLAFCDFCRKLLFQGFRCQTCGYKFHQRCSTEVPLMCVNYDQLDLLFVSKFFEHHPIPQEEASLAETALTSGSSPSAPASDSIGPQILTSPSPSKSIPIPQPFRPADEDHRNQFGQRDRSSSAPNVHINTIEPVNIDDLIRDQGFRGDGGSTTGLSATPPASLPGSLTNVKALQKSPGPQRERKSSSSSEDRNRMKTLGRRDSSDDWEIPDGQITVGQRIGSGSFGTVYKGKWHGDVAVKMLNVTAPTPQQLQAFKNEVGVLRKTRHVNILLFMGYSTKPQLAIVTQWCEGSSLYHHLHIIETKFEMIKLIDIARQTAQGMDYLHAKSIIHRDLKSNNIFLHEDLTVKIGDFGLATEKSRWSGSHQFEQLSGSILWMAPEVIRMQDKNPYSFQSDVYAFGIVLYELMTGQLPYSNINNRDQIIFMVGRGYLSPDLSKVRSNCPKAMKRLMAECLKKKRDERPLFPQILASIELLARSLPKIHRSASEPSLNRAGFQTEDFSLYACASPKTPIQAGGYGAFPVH

Row | SMILES | IC50 (BRAF V600E) [µM] | EC50 (B9 (HRAS Q61L) cell line) [µM] | EC50 [1] [µM] | IC50 [2] [µM]
1 | O=C(c1c(F)ccc(NS(=O)(=O)C2CCC2)c1F)c1c[nH]c2ncncc12 [P-2030, N-[2,4-difluoro-3-(7H-pyrrolo[2,3-d]pyrimidine-5-carbonyl)phenyl]cyclobutanesulfonamide] | 1 to 10 | > 10 | > 10 | 1 to 10
2 | O=C(c1cc(F)cc(NS(=O)(=O)N2CC[C@@H](F)C2)c1F)c1c[nH]c2ncc(-c3cnc(C4CC4)nc3)cc12 [P-2172, (3R)—N-[3-[5-(2-cyclopropylpyrimidin-5-yl)-1H-pyrrolo[2,3-b]pyridine-3-carbonyl]-2,5-difluoro-phenyl]-3-fluoro-pyrrolidine-1-sulfonamide] | 0.0001 to 1 | > 1 | > 10 | 0.0001 to 1
3 | [2H]C1([2H])CCC([2H])([2H])N1S(=O)(=O)Nc1cc(Cl)cc(C(=O)c2c[nH]c3ncc(-c4cnc(C5CC5)nc4)cc23)c1F [P-2176, N-[5-chloro-3-[5-(2-cyclopropylpyrimidin-5-yl)-1H-pyrrolo[2,3-b]pyridine-3-carbonyl]-2-fluoro-phenyl]-2,2,5,5-tetradeuterio-pyrrolidine-1-sulfonamide] | 0.0001 to 1 | > 10 | > 10 | 0.0001 to 1
4 | O=C(c1c(F)ccc(NS(=O)(=O)N2CCCC2)c1F)c1c[nH]c2nccc(Cl)c12 [P-2025, N-[3-(4-chloro-1H-pyrrolo[2,3-b]pyridine-3-carbonyl)-2,4-difluoro-phenyl]pyrrolidine-1-sulfonamide] | 0.0001 to 1 | > 10 | > 10 | 0.0001 to 1
5 | CCC(C)S(=O)(=O)Nc1ccc(F)c(C(=O)c2c[nH]c3nccc(Cl)c23)c1F (stereo not shown) [P-2016, N-[3-(4-chloro-1H-pyrrolo[2,3-b]pyridine-3-carbonyl)-2,4-difluoro-phenyl]butane-2-sulfonamide] | 0.0001 to 1 | > 10 | > 10 | 0.0001 to 1
6 | CC(C)(O)CCNc1ncnc2[nH]cc(C(=O)c3cccc(NS(=O)(=O)N4CCCC4)c3F)c12 [P-2108, N-[2-fluoro-3-[4-[(3-hydroxy-3-methyl-butyl)amino]-7H-pyrrolo[2,3-d]pyrimidine-5-carbonyl]phenyl]pyrrolidine-1-sulfonamide] | 0.0001 to 1 | > 10 | > 10 | 0.0001 to 1
7 | CCC(C)S(=O)(=O)Nc1ccc(F)c(C(=O)c2c[nH]c3ncnc(NCC4CC4)c23)c1F (stereo not shown) [P-2056, N-[3-[4-(cyclopropylmethylamino)-7H-pyrrolo[2,3-d]pyrimidine-5-carbonyl]-2,4-difluoro-phenyl]butane-2-sulfonamide] | 0.0001 to 1 | > 10 | > 10 | 0.0001 to 1
8 | CC(C)Nc1ncnc2[nH]cc(C(=O)c3c(F)ccc(NS(=O)(=O)C(C)C)c3F)c12 [P-2037, N-[2,4-difluoro-3-[4-(isopropylamino)-7H-pyrrolo[2,3-d]pyrimidine-5-carbonyl]phenyl]propane-2-sulfonamide] | 0.0001 to 1 | > 10 | > 10 | 0.0001 to 1
9 | O=C(c1c(F)ccc(NS(=O)(=O)N2CCOCC2)c1F)c1c[nH]c2ncnc(NCC3CC3)c12 [P-2054, N-[3-[4-(cyclopropylmethylamino)-7H-pyrrolo[2,3-d]pyrimidine-5-carbonyl]-2,4-difluoro-phenyl]morpholine-4-sulfonamide] | 0.0001 to 1 | > 10 | > 10 | 0.0001 to 1
10 | CN(C)CC(C)(C)CNc1ncnc2[nH]cc(C(=O)c3cccc(NS(=O)(=O)N4CCCC4)c3F)c12 [P-2113, N-[3-[4-[[3-(dimethylamino)-2,2-dimethyl-propyl]amino]-7H-pyrrolo[2,3-d]pyrimidine-5-carbonyl]-2-fluoro-phenyl]pyrrolidine-1-sulfonamide] | 0.0001 to 1 | > 10 | > 10 | 0.0001 to 1
11 | CCN(C)S(=O)(=O)Nc1cccc(C(=O)c2c[nH]c3ncnc(NC(C)C)c23)c1F [P-2067, 5-[3-[[ethyl(methyl)sulfamoyl]amino]-2-fluoro-benzoyl]-4-(isopropylamino)-7H-pyrrolo[2,3-d]pyrimidine] | 0.0001 to 1 | > 10 | > 10 | 0.0001 to 1
12 | COCCCNc1ncnc2[nH]cc(C(=O)c3cccc(NS(=O)(=O)N4CCCC4)c3F)c12 [P-2105, N-[2-fluoro-3-[4-(3-methoxypropylamino)-7H-pyrrolo[2,3-d]pyrimidine-5-carbonyl]phenyl]pyrrolidine-1-sulfonamide] | 0.0001 to 1 | > 10 | > 10 | 0.0001 to 1
13 | CCC(C)S(=O)(=O)Nc1ccc(F)c(C(=O)c2c[nH]c3nccc(OC)c23)c1F (stereo not shown) [Compound P-2006, N-[2,4-difluoro-3-(4-methoxy-1H-pyrrolo[2,3-b]pyridine-3-carbonyl)phenyl]butane-2-sulfonamide] | 0.0001 to 1 | > 10 | > 10 | 0.0001 to 1

— patent US10421761B2, “Compounds for kinase modulation, and indications therefor” (Plexxikon Inc., priority 2013, dated 2019)
